Assay results reported in ChEMBL document CHEMBL1125524, “Adenosine A1 antagonists. 2. Structure-activity relationships on diuretic activities and protective effects against acute renal failure” (J Med Chem, 1992).

Experiments:
Rattus norvegicus [1] = experiment: Oral diuretic activity was measured after oral administration of 25 mg/kg to rats(control volume is 0.91+/-0.08); type: functional, Urine
Rattus norvegicus [2] = experiment: Percent inhibition of Urea nitrogen by the compound given as ratio of UN value in treated to vehicle treated ones after intraperitoneal administration of 10 mg/kg of compound to rats(vehicle 182.5+/-3.4); type: functional; conditions: ip
Rattus norvegicus [3] = experiment: Ratio of sodium ion/potassium ion concentration in treated rats to that in control rats, at a peroral dose of 1.6 mg/Kg; type: functional
Rattus norvegicus [4] = experiment: Ratio of sodium ion/potassium ion concentration in treated rats to that in control rats, at a peroral dose of 25 mg/Kg; type: functional
Rattus norvegicus [5] = experiment: Ratio of urinary excretion value (urinary volume) in treated rats to that in control rats, at a peroral dose of 25 mg/Kg; type: functional, Urine
Rattus norvegicus [6] = experiment: Effect on urinary excretion potassium and sodium after oral administration of 1.6 mg/kg to rats(potassium and sodium excretion in control rat is 0.079+/-0.007); type: functional, Urine
Rattus norvegicus [7] = experiment: Ratio of urinary excretion value (urinary volume) in treated rats to that in control rats, at a peroral dose of 6.25 mg/Kg; type: functional, Urine
Rattus norvegicus [8] = experiment: Percent inhibition of serum creatinine by the compound given as ratio of Cr value in treated to vehicle treated ones after intraperitoneal administration of 10 mg/kg of compound to rats(vehicle 182.5+/-3.4); type: functional; conditions: ip
Rattus norvegicus [9] = experiment: Serum creatinine concentration measured after intraperitoneal administration of 10 mg/kg of compound to rats(vehicle 5.43+/-0.11); type: functional
Rattus norvegicus [10] = experiment: Urea nitrogen concentration measured after intraperitoneal administration of 10 mg/kg of compound to rats(vehicle 182.5+/-3.4); type: functional
Rattus norvegicus [11] = experiment: Effect on urinary excretion potassium and sodium after oral administration of 25 mg/kg to rats(potassium and sodium excretion in control rat is 0.193+/-0.016); type: functional, Urine
Rattus norvegicus [12] = experiment: Ratio of urinary excretion value (urinary volume) in treated rats to that in control rats, at a peroral dose of 1.6 mg/Kg; type: functional, Urine
Rattus norvegicus [13] = experiment: Ratio of urinary excretion value (Na+ concentration) in treated rats to that in control rats, at a peroral dose of 6.25 mg/Kg; type: functional, Urine
Rattus norvegicus [14] = experiment: Ratio of urinary excretion value (Na+ concentration) in treated rats to that in control rats, at a peroral dose of 1.6 mg/Kg; type: functional, Urine
Rattus norvegicus [15] = experiment: Oral diuretic activity was measured after oral administration of 1.6 mg/kg to rats(control volume is 0.69+/-0.03); type: functional, Urine
Rattus norvegicus [16] = experiment: Ratio of urinary excretion value (Na+ concentration) in treated rats to that in control rats, at a peroral dose of 25 mg/Kg; type: functional, Urine
Adenosine A2 receptor = Adenosine A2 receptor (Rattus norvegicus, UniProt P29276+P30543)
Rattus norvegicus [17] = experiment: Percent inhibition of Urea nitrogen by the compound given as ratio of UN value in treated to vehicle treated ones after intraperitoneal administration of 10 mg/kg of compound to rats(vehicle 164.3+/-4.9); type: functional; conditions: ip
Rattus norvegicus [18] = experiment: Percent inhibition of serum creatinine by the compound given as ratio of Cr value in treated to vehicle treated ones after intraperitoneal administration of 10 mg/kg of compound to rats(vehicle 4.38+/-0.17); type: functional; conditions: ip
Rattus norvegicus [19] = experiment: Effect on urinary excretion potassium and sodium after oral administration of 25 mg/kg to rats(potassium and sodium excretion in control rat is 0.160+/-0.006); type: functional, Urine
Rattus norvegicus [20] = experiment: Serum creatinine concentration measured after intraperitoneal administration of 10 mg/kg of compound to rats(vehicle 4.38+/-0.17); type: functional
Rattus norvegicus [21] = experiment: Oral diuretic activity was measured after oral administration of 25 mg/kg to rats(control volume is 0.76+/-0.01); type: functional, Urine
Rattus norvegicus [22] = experiment: Urea nitrogen concentration measured after intraperitoneal administration of 10 mg/kg of compound to rats(vehicle 164.3+/-4.9); type: functional

Compound: Cn1c(=O)c2nc[nH]c2n(C)c1=O.O [THEOPHYLLINE]
- Urine volume (Rattus norvegicus [1]): 1.22 ml 6hr-1 100g-1
- inhibition in vivo at 10 mg/kg (Rattus norvegicus [2]): 5%
- Na+/K+ (Rattus norvegicus [3]): 1.06
- Na+/K+ (Rattus norvegicus [4]): 1.08
- T/C (Rattus norvegicus [5]): 1.34
- Na (Rattus norvegicus [6]): 0.09 m equiv 6hr-1 100g-1
- T/C (Rattus norvegicus [7]): 1.42
- inhibition in vivo at 10 mg/kg (Rattus norvegicus [8]): 2%
- Cr (Rattus norvegicus [9]): 5.32 mg/dL
- UN (Rattus norvegicus [10]): 174 mg/dL
- Na (Rattus norvegicus [11]): 0.417 m equiv 6hr-1 100g-1
- T/C (Rattus norvegicus [12]): 1.03
- T/C (Rattus norvegicus [13]): 1.52
- T/C (Rattus norvegicus [14]): 1.14
- Urine volume (Rattus norvegicus [15]): 0.71 ml 6hr-1 100g-1
- T/C (Rattus norvegicus [16]): 2.16

Compound: CCCn1c(=O)c2c(nc(C(C3CC3)C3CC3)n2CCC)n(CCC)c1=O
- Ki (Adenosine A2 receptor): 6.3 µM
- inhibition in vivo at 10 mg/kg (Rattus norvegicus [17]): 3%
- inhibition in vivo at 10 mg/kg (Rattus norvegicus [18]): 7%
- Na+/K+ (Rattus norvegicus [4]): 0.92
- T/C (Rattus norvegicus [5]): 1.47
- Na (Rattus norvegicus [19]): 0.188 m equiv 6hr-1 100g-1
- Cr (Rattus norvegicus [20]): 4.09 mg/dL
- Urine volume (Rattus norvegicus [21]): 1.12 ml 6hr-1 100g-1
- T/C (Rattus norvegicus [16]): 1.18
- UN (Rattus norvegicus [22]): 159.2 mg/dL
